Test results: patent US20230382925A1, “MODULATORS OF CYSTIC FIBROSIS TRANSMEMBRANE CONDUCTANCE REGULATOR” (VERTEX PHARMACEUTICALS INCORPORATED, priority 2020, published 2023)

Molecular target: CFTR (Homo sapiens, UniProt P13569)
Experiment: Membrane Potential Dye, Enteroid Assay A
Format: cell-based
Settings: for EC50: read-out: Ent. A EC50
Description: Base medium (ADF+++) consisted of Advanced […], 2 mM Glutamax, 10 mM HEPES, 1 μg/mL penicillin/streptomycin.
Intestinal enteroid maintenance medium (IEMMN) consisted of ADF+++, 1× B27 supplement, 1× N2 supplement, 1.25 mM N-acetyl cysteine, 10 mM Nicotinamide, 50 ng/mL hEGF, 10 nM Gastrin, 1 μg/mL hR-spondin-1, 100 ng/mL hNoggin, TGF-b type 1 inhibitor A-83-01, 100 μg/mL Primocin, 10 μM P38 MAPK inhibitor SB202190.
Bath 1 Buffer consisted of 1 mM MgCl2, 160 mM NaCl, 4.5 mM KCl, 10 mM HEPES, 10 mM Glucose, 2 mM CaCl2).
Chloride Free Buffer consisted of 1 mM Magnesium Gluconate, 2 mM Calcium Gluconate, 4.5 mM Potassium Gluconate, 160 mM Sodium Gluconate, 10 mM HEPES, 10 mM Glucose.
Bath 1 Dye Solution consisted of Bath 1 Buffer, 0.04% Pluronic F127, 20 μM Methyl Oxonol, 30 μM CaCCinh-A01, 30 μM Chicago Sky Blue.
Chloride Free Dye Solution consisted of Chloride Free Buffer, 0.04% Pluronic F127, 20 μM Methyl Oxonol, 30 μM CaCCinh-A01, 30 μM Chicago Sky Blue.
Chloride Free Dye Stimulation Solution consisted of Chloride Free Dye Solution, 10 μM forskolin, 100 μM IBMX, and 300 nM Compound III.
Human intestinal epithelial enteroid cells were obtained from the Hubrecht Institute for Developmental Biology and Stem Cell Research, Utrecht, The Netherlands and expanded in T-Flasks as previously described (Dekkers J F, Wiegerinck C L, de Jonge H R, Bronsveld I, Janssens H M, de Winter-de Groot K M, Brandsma A M, de Jong N W M, Bijvelds M J C, Scholte B J, Nieuwenhuis E E S, van den Brink S, Clevers H, van der Ent C K, Middendorp S and M Beekman J M. A functional CFTR assay using primary cystic fibrosis intestinal organoids. Nat Med. 2013 July; 19(7):939-45.).
3. Enteroid Cell Harvesting and Seeding
Cells were recovered in cell recovery solution, collected by centrifugation at 650 rpm for 5 min at 4° C., resuspended in TrypLE and incubated for 5 min at 37° C. Cells were then collected by centrifugation at 650 rpm for 5 min at 4° C. and resuspended in IEMM containing 10 μM ROCK inhibitor (RI). The cell suspension was passed through a 40 μm cell strainer and resuspended at 1×10^6 cells/mL in IEMM containing 10 μM RI. Cells were seeded at 5000 cells/well into multi-well plates and incubated for overnight at 37° C., 95% humidity and 5% CO2 prior to assay.
4. Membrane Potential Dye, Enteroid Assay A
Enteroid cells were incubated with test compound in IEMM for 18-24 hours at 37° C., 95% humidity and 5% CO2. […] Briefly, cells were washed 5 times in Bath 1 Buffer. Bath 1 Dye Solution was added, and the cells were incubated for 25 min at room temperature. Following dye incubation, cells were washed 3 times in Chloride Free Dye Solution. Chloride transport was initiated by addition of Chloride Free Dye Stimulation Solution and the fluorescence signal was read for 15 min. […] Chloride transport was then expressed as a percentage of the chloride transport following treatment with 3 μM N-[(6-amino-2-pyridyl)sulfonyl]-6-(3-fluoro-5-isobutoxy-phenyl)-2-[(4S)-2,2,4-trimethylpyrrolidin-1-yl]pyridine-3-carboxamide, 3 μM (R)-1-(2,2-difluorobenzo[d][1,3]dioxol-5-yl)-N-(1-(2,3-dihydroxypropyl)-6-fluoro-2-(1-hydroxy-2-methylpropan-2-yl)-1H-indol-5-yl)cyclopropanecarboxamide and 300 nM acute N-[2,4-bis(1,1-dimethylethyl)-5-hydroxyphenyl]-1,4-dihydro-4-oxoquinoline-3-carboxamide triple combination control (% Activity).

CFTR, sequence (P13569 with tags, fused parts or gaps DEL508-508): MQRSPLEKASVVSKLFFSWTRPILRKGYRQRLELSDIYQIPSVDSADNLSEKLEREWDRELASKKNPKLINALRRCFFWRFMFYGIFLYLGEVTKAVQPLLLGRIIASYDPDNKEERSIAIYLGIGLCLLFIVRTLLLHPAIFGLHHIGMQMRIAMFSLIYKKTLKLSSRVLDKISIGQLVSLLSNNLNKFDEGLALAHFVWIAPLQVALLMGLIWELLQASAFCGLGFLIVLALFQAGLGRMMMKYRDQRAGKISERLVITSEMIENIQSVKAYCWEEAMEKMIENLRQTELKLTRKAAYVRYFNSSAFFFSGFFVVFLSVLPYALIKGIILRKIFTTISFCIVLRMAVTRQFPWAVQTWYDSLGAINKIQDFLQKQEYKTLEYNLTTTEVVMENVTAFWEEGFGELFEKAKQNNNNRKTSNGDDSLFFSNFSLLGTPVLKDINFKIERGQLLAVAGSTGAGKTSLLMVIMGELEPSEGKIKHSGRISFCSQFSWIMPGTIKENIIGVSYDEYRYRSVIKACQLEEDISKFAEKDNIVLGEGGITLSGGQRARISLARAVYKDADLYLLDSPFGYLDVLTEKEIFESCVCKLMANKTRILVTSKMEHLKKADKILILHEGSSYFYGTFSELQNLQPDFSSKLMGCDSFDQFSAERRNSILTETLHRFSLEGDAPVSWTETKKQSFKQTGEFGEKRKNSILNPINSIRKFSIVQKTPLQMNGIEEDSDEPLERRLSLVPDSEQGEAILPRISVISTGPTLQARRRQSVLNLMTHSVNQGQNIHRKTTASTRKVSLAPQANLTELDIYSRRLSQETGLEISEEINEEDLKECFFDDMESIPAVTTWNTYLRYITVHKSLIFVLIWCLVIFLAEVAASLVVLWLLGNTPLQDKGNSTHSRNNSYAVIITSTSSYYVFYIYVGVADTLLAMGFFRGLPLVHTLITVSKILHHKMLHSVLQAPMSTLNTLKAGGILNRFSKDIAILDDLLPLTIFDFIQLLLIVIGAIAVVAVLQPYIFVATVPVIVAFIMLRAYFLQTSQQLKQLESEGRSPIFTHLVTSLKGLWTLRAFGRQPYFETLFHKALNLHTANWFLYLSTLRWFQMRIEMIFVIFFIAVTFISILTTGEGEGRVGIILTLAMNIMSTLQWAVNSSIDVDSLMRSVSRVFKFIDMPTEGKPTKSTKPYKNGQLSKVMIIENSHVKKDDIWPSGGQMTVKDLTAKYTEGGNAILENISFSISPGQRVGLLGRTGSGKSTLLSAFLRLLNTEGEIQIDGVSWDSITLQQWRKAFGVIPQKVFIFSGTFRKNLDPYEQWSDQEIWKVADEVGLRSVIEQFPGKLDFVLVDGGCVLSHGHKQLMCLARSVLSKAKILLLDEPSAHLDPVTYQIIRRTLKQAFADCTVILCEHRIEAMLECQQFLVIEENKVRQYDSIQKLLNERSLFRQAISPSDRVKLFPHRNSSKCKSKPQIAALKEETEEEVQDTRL

| Structure (SMILES) | Ent. A Max Activity (%) | EC50 [µM] |
| --- | --- | --- |
| Cc1cccc(C)c1-c1cc2nc(n1)NS(=O)(=O)c1cccc(c1)C(=O)N(C1CC3(CCN(C)CC3)C1)C(CC1(C(F)(F)F)CC1)CO2 (single isomer, unassigned) [Compound 137, 6-(2,6-dimethylphenyl)-12-(7-methyl-7-azaspiro[3.5]nonan-2-yl)-2,2-dioxo-11-[[1-(trifluoromethyl)cyclopropyl]methyl]-9-oxa-2λ^6-thia-3,5,12,19-tetrazatricyclo[12.3.1.14,8]nonadeca-1(18),4(19),5,7,14,16-hexaen-13-one] | +++ (+++ is >60%) | 1 to 3 |
| CNC(=O)[C@H]1CC2(C1)C[C@H](N1C(=O)c3cccc(c3)S(=O)(=O)Nc3nc(cc(-c4c(C)cccc4C)n3)OC[C@H]1CC(C)C)C2 (stereo in doubt) [Compound 347] | +++ (+++ is >60%) | < 1 |
| CC(C)C[C@@H]1COc2cc(-c3ccccc3C(C)C)nc(n2)NS(=O)(=O)c2cccc(c2)C(=O)N1C1CC2(CCN(C)CC2)C1 [Compound 11, (11R)-11-Isobutyl-6-(2-isopropylphenyl)-12-(7-methyl-7-azaspiro[3.5]nonan-2-yl)-2,2-dioxo-9-oxa-2 λ6-thia-3,5,12,19-tetrazatricyclo[12.3.1.14,8]nonadeca-1(18),4,6,8(19),14,16-hexaen-13-one] | +++ (+++ is >60%) | < 1 |
| CC(C)C[C@@H]1COc2cc(-c3ccccc3C(C)C)nc(n2)NS(=O)(=O)c2cccc(c2)C(=O)N1C1CC2(CCN(C(=O)OC(C)(C)C)CC2)C1 [Compound 12, tert-Butyl 2-[(11R)-11-isobutyl-6-(2-isopropylphenyl)-2,2,13-trioxo-9-oxa-2λ^6-thia-3,5,12,19-tetrazatricyclo[12.3.1.14,8]nonadeca-1(18),4,6,8(19),14,16-hexaen-12-yl]-7-azaspiro[3.5]nonane-7-carboxylate] | ++ (++ is 30-60%) | < 1 |
| Cc1cccc(C)c1-c1cc2nc(n1)NS(=O)(=O)c1cccc(c1)C(=O)N(C1CC3(CCN(C(C)C)CC3)C1)[C@H](CC(C)C)CO2 [Compound 17, (11R)-6-(2,6-Dimethylphenyl)-11-isobutyl-12-(7-isopropyl-7-azaspiro[3.5]nonan-2-yl)-2,2-dioxo-9-oxa-2λ^6-thia-3,5,12,19-tetrazatricyclo[12.3.1.14,8]nonadeca-1(18),4(19),5,7,14,16-hexaen-13-one] | +++ (+++ is >60%) | < 1 |
| Cc1cccc(C)c1-c1cc2nc(n1)NS(=O)(=O)c1cccc(c1)C(=O)N(C1CC(C(=O)O)C1)[C@H](CC(C)C)CO2 (stereo partly drawn) [Compound 35, 3-[(11R)-6-(2,6-dimethylphenyl)-11-isobutyl-2,2,13-trioxo-9-oxa-2λ^6-thia-3,5,12,19-tetrazatricyclo[12.3.1.14,8]nonadeca-1(18),4(19),5,7,14,16-hexaen-12-yl]cyclobutanecarboxylic acid] | +++ (+++ is >60%) | 3 to 30 |
| COC(=O)N1CCC2(CC1)CC(N1C(=O)c3cccc(c3)S(=O)(=O)Nc3nc(cc(-c4c(C)cccc4C)n3)OC[C@@H]1CC(C)C)C2 [Compound 113, Methyl 2-[(11S)-6-(2,6-dimethylphenyl)-11-isobutyl-2,2,13-trioxo-9-oxa-2λ^6-thia-3,5,12,19-tetrazatricyclo[12.3.1.14,8]nonadeca-1(18),4(19),5,7,14,16-hexaen-12-yl]-7-azaspiro[3.5]nonane-7-carboxylate] | ++ (++ is 30-60%) | < 1 |
| Cc1cccc(C)c1-c1cc2nc(n1)NS(=O)(=O)c1cccc(c1)C(=O)N(C1CC3(CCN(C)CC3)C1)C[C@@H](C)O2 [Compound 179, (10R)-6-(2,6-Dimethylphenyl)-10-methyl-12-(7-methyl-7-azaspiro[3.5]nonan-2-yl)-2,2-dioxo-9-oxa-2λ^6-thia-3,5,12,19-tetrazatricyclo[12.3.1.14,8]nonadeca-1(18),4(19),5,7,14,16-hexaen-13-one] | +++ (+++ is >60%) | 1 to 3 |
| COC(=O)N1CCC2(CC1)CC(N1C(=O)c3cccc(c3)S(=O)(=O)Nc3cc(cc(-c4c(C)cccc4C)n3)OC[C@H]1CC(C)C)C2 [Compound 196, Methyl 2-[(11R)-6-(2,6-dimethylphenyl)-11-isobutyl-2,2,13-trioxo-9-oxa-2λ^6-thia-3,5,12-triazatricyclo[12.3.1.14,8]nonadeca-1(18),4(19),5,7,14,16-hexaen-12-yl]-7-azaspiro[3.5]nonane-7-carboxylate] | +++ (+++ is >60%) | < 1 |

More lines, now with the values ahead:

| Ent. A Max Activity (%) | EC50 [µM] | Structure (SMILES) |
| --- | --- | --- |
| +++ (+++ is >60%) | < 1 | Cc1cccc(C)c1-c1cc2nc(n1)NS(=O)(=O)c1cccc(c1)C(=O)N([C@H]1C[C@]3(CCN(C)C3)C1)[C@H](CC(C)C)CO2 (stereo in doubt) [Compound 333] |
| ++ (++ is 30-60%) | < 1 | Cc1cccc(C)c1-c1cc2nc(n1)NS(=O)(=O)c1cccc(c1)C(=O)N(C1CCC1)[C@H](CC(C)C)CO2 [Compound 27, (11R)-12-cyclobutyl-6-(2,6-dimethylphenyl)-11-isobutyl-2,2-dioxo-9-oxa-2λ^6-thia-3,5,12,19-tetrazatricyclo[12.3.1.14,8]nonadeca-1(18),4(19),5,7,14,16-hexaen-13-one] |
| +++ (+++ is >60%) | < 1 | Cc1cccc(C)c1-c1cc2nc(n1)NS(=O)(=O)c1cccc(c1)C(=O)N(C1CC3(COC3)C1)[C@H](CC(C)C)CO2 [Compound 29, (11R)-6-(2,6-Dimethylphenyl)-11-isobutyl-12-(2-oxaspiro[3.3]heptan-6-yl)-2,2-dioxo-9-oxa-2λ^6-thia-3,5,12,19-tetrazatricyclo[12.3.1.14,8]nonadeca-1(18),4(19),5,7,14,16-hexaen-13-one] |
| +++ (+++ is >60%) | < 1 | Cc1cccc(C)c1-c1cc2nc(n1)NS(=O)(=O)c1cccc(c1)C(=O)N(C1CCCC1)[C@H](CC(C)C)CO2 [Compound 30, (11R)-12-Cyclopentyl-6-(2,6-dimethylphenyl)-11-isobutyl-2,2-dioxo-9-oxa-2λ^6-thia-3,5,12,19-tetrazatricyclo[12.3.1.14,8]nonadeca-1(18),4(19),5,7,14,16-hexaen-13-one] |
| +++ (+++ is >60%) | < 1 | Cc1cccc(C)c1-c1cc2nc(n1)NS(=O)(=O)c1cccc(c1)C(=O)N(C1CC(C(=O)N3CCN(C)CC3)C1)[C@H](CC(C)C)CO2 (stereo partly drawn) [Compound 36, (11R)-6-(2,6-dimethylphenyl)-11-isobutyl-12-[3-(4-methylpiperazine-1-carbonyl)cyclobutyl]-2,2-dioxo-9-oxa-2λ^6-thia-3,5,12,19-tetrazatricyclo[12.3.1.14,8]nonadeca-1(18),4(19),5,7,14,16-hexaen-13-one] |
| +++ (+++ is >60%) | < 1 | Cc1cccc(C)c1-c1cc2nc(n1)NS(=O)(=O)c1cccc(c1)C(=O)N(C1CC3(CC3)C1)C(CC(C)(C)C(F)(F)F)CO2 (stereo not drawn) [Compound 216] |
| +++ (+++ is >60%) | < 1 | COC(=O)N1CCC2(CC1)CC(N1C[C@@H](C)Oc3cc(-c4c(C)cccc4C)nc(n3)NS(=O)(=O)c3cccc(c3)C1=O)C2 [Compound 312] |
| +++ (+++ is >60%) | < 1 | Cc1cccc(C)c1-c1cc2nc(n1)NS(=O)(=O)c1cccc(c1)C(=O)N([C@H]1CC3(C[C@H](N(C)C)C3)C1)[C@H](CC(C)C)CO2 (stereo partly drawn) [Compound 314] |
| +++ (+++ is >60%) | < 1 | COC(=O)N1CCCC2(CC(N3C(=O)c4cccc(c4)S(=O)(=O)Nc4nc(cc(-c5c(C)cccc5C)n4)OC[C@H]3CC(C)C)C2)C1 (stereo partly drawn) [Compound 324] |
